This note sets out measurements from ChEMBL document CHEMBL3632564, “Synthesis of 17-membered azalides from a 16-membered macrolide utilizing amide-selective silane reduction” (2015).

SMILES strings stand for the structures. In brackets after ≈: the same amount, converted by molar mass.

Assay type in all cases: functional
In one assay the test system is Haemophilus influenzae. Briefly: Antibacterial activity against beta-lactamase-negative ampicillin-resistant Gram-negative Haemophilus influenzae ME587 after 18 hrs by agar dilution method. To be noted: ME587, 18 h. (In agar dilution the substance is mixed into plates at graded concentrations.)
For assay [1], the system named is Streptococcus pneumoniae. In words: Antibacterial activity against penicillin-susceptible Gram-positive Streptococcus pneumoniae S-223 after 18 hrs by agar dilution method. To be noted: S-223, 18 h.
In assay [2] the test system is Streptococcus pneumoniae. In words: Antibacterial activity against penicillin-resistant Gram-positive Streptococcus pneumoniae JPS317 after 18 hrs by agar dilution method. To be noted: JPS317, 18 h.
Assay [3] relates to Streptococcus pneumoniae. In words: Antibacterial activity against penicillin-intermediate Gram-positive Streptococcus pneumoniae TY-5745 after 18 hrs by agar dilution method. The conditions noted are these: TY-5745, 18 h.

On to `CC[C@H]1OC(=O)CC[C@H](C)[C@@H](O[C@@H]2O[C@H](C)C[C@H](N(C)C)[C@H]2O)[C@@H](CC=O)C[C@@H](C)CN(C)CC/C(C)=C/[C@@H]1CO`, for which the MIC amounted to 4 µg/mL (≈ 6.86 µM) with Haemophilus influenzae, 8 µg/mL (≈ 13.7 µM) against Streptococcus pneumoniae [1], 8 µg/mL (≈ 13.7 µM) against Streptococcus pneumoniae [2] and 16 µg/mL (≈ 27.5 µM) against Streptococcus pneumoniae [3].

Consider `CC[C@H]1OC(=O)CC[C@H](C)[C@@H](O[C@@H]2O[C@H](C)C[C@H](N(C)C)[C@H]2O)[C@@H](CC=O)C[C@@H](C)N(C)CCC/C(C)=C/[C@@H]1CO`, for which the MIC in the assay with Haemophilus influenzae worked out at 4 µg/mL (≈ 6.86 µM); in the assay with Streptococcus pneumoniae [1], 8 µg/mL (≈ 13.7 µM); in the assay on Streptococcus pneumoniae [2] it was 8 µg/mL (≈ 13.7 µM); against Streptococcus pneumoniae [3], 32 µg/mL (≈ 54.9 µM).

As to `CC[C@H]1OC(=O)CC[C@H](C)[C@@H](O[C@@H]2O[C@H](C)C[C@H](N(C)C)[C@H]2O)[C@@H](CC=O)C[C@@H](C)N(C)C/C=C/C(C)=C/[C@@H]1CO`, the MIC in the assay on Haemophilus influenzae was 4 µg/mL (≈ 6.89 µM); with Streptococcus pneumoniae [1], 16 µg/mL (≈ 27.5 µM); in the assay with Streptococcus pneumoniae [2], 32 µg/mL (≈ 55.1 µM); with Streptococcus pneumoniae [3], 32 µg/mL (≈ 55.1 µM).

`CC[C@H]1OC(=O)CC[C@H](C)[C@@H](O[C@@H]2O[C@H](C)C[C@H](N(C)C)[C@H]2O)[C@@H](CC=O)C[C@@H](C)C(=O)/C=C/C(C)=C/[C@@H]1CO`: the MIC stood at 1 µg/mL (≈ 1.77 µM) against Haemophilus influenzae, 0.25 µg/mL (≈ 0.442 µM) in the assay with Streptococcus pneumoniae [1], 0.5 µg/mL (≈ 0.884 µM) against Streptococcus pneumoniae [2] and 1 µg/mL (≈ 1.77 µM) against Streptococcus pneumoniae [3].

Regarding `CC[C@H]1OC(=O)[C@H](C)[C@@H](O[C@H]2C[C@@](C)(OC)[C@@H](O)[C@H](C)O2)[C@H](C)[C@@H](O[C@@H]2O[C@H](C)C[C@H](N(C)C)[C@H]2O)[C@](C)(O)C[C@@H](C)CN(C)[C@H](C)[C@@H](O)[C@]1(C)O` [AZITHROMYCIN], the MIC came to 1 µg/mL (≈ 1.34 µM) in the assay with Haemophilus influenzae, 0.25 µg/mL (≈ 0.334 µM) in the assay on Streptococcus pneumoniae [1], 8 µg/mL (≈ 10.7 µM) with Streptococcus pneumoniae [2] and 1 µg/mL (≈ 1.34 µM) against Streptococcus pneumoniae [3].
